From patent US20240409566A1, “DELIVERY OF THERAPEUTIC ALKALOID COMPOUNDS” (priority 2022, published 2024)

What was measured:
[1] = Plasma stability assay, rat plasma; format: in vitro ADME
Experimental: (§1) Compound stability in rat and human plasma was measured by incubating compound with rat or human plasma at 37° C. in a microwell plate for sequential time points, monitoring pro-drug disappearance and metabolite appearance (mesembranol or 6-epi-mesembranol). A 2 mM stock solution of test compounds were prepared by dissolving appropriate amount of compounds in DMSO. The 2 mM stock was further diluted 200-folds in rat or human plasma to attain a final concentration of 10 μM respectively (0.5% DMSO). 50 μL aliquots of positive controls and test compounds spiked into rat or human plasma (n=2) were added to a pre-warmed plate (37° C.) and shaken at 50 rpm. At each respective time point, the reaction was stopped by adding 500 μL of acetonitrile containing internal standards (100 nM aprozolam, 200 nM caffeine, 100 nM tolbutamide). All samples were vortexed for 10 minutes, followed by centrifugation at 3,220 g for 30 minutes to precipitate proteins. 100 μL of the supernatant is transferred to a new plate. The supernatant will be diluted with ultrapure water according to the LC-MS signal response and peak shape. The concentrations of test compounds and positive control were quantified in the test samples using LC-MS/MS. Results reported as % of prodrug compound remaining at time point, and % of metabolite (mesembranol or 6-epi-mesembranol,) accumulated at time point.

[2] = Plasma stability assay, human plasma; format: in vitro ADME
Experimental: as §1

[3] = rat plasma, 37° C., 10 μM, 0 min, % prodrug remaining
[4] = rat plasma, 37° C., 10 μM, 10 min, % prodrug remaining
[5] = rat plasma, 37° C., 10 μM, 30 min, % prodrug remaining
[6] = rat plasma, 37° C., 10 μM, 60 min, % prodrug remaining
[7] = rat plasma, 37° C., 10 μM, 120 min, % prodrug remaining
[8] = rat plasma, 37° C., 10 μM, 240 min, % prodrug remaining
[9] = human plasma, 37° C., 10 μM, 0 min, % prodrug remaining
[10] = human plasma, 37° C., 10 μM, 10 min, % prodrug remaining
[11] = human plasma, 37° C., 10 μM, 30 min, % prodrug remaining
[12] = human plasma, 37° C., 10 μM, 60 min, % prodrug remaining
[13] = human plasma, 37° C., 10 μM, 120 min, % prodrug remaining
[14] = human plasma, 37° C., 10 μM, 240 min, % prodrug remaining

Compound	Prodrug (%) ([1]; rat, 0 min, 10 µM)	Prodrug (%) ([1]; rat, 10 min, 10 µM)	Prodrug (%) ([1]; rat, 30 min, 10 µM)	Prodrug (%) ([1]; rat, 60 min, 10 µM)	Prodrug (%) ([1]; rat, 120 min, 10 µM)	Prodrug (%) ([1]; rat, 240 min, 10 µM)	Prodrug (%) ([2]; human, 0 min, 10 µM)	Prodrug (%) ([2]; human, 10 min, 10 µM)	Prodrug (%) ([2]; human, 30 min, 10 µM)	Prodrug (%) ([2]; human, 60 min, 10 µM)	Prodrug (%) ([2]; human, 120 min, 10 µM)	Prodrug (%) ([2]; human, 240 min, 10 µM)	also measured
COc1ccc([C@@]23CC[C@H](OC(=O)C(C)C)C[C@@H]2N(C)CC3)cc1OC [Compound 103, (3aS,6S,7aS)-3a-(3,4-dimethoxyphenyl)-1-methyloctahydro-1H-indol-6-yl isobutyrate]	100.0	56.1	12.2	0.6	0.1	0.0	100.00	>99.0	>99.0	97.28	97.48	87.17	–
COc1ccc([C@@]23CC[C@@H](OC(=O)c4ccccc4)C[C@@H]2N(C)CC3)cc1OC [Compound 204, (3aS,6R,7aS)-3a-(3,4-dimethoxyphenyl)-1-methyloctahydro-1H-indol-6-yl benzoate]	–	–	–	–	–	–	–	–	–	–	–	–	Prodrug (%) [1, 3]: 100.0%; Prodrug (%) [1, 4]: 38.7%; Prodrug (%) [1, 5]: 5.9%; Prodrug (%) [1, 6]: 0.6%; Prodrug (%) [1, 7]: 0.1%; Prodrug (%) [1, 8]: 0.0%; Prodrug (%) [2, 9]: 100.00%; Prodrug (%) [2, 10]: 97.40%; Prodrug (%) [2, 11]: 94.26%; Prodrug (%) [2, 12]: 92.22%; Prodrug (%) [2, 13]: 93.59%; Prodrug (%) [2, 14]: 91.87%
COc1ccc([C@@]23CC[C@@H](OC(=O)C(C)(C)C)C[C@@H]2N(C)CC3)cc1OC [Compound 202, (3aS,6R,7aS)-3a-(3,4-dimethoxyphenyl)-1-methyloctahydro-1H-indol-6-yl pivalate]	100.0	80.6	38.9	9.6	0.6	0.0	100.0	>99.0	>99.0	96.3	94.7	88.1	–
COc1ccc([C@@]23CC[C@@H](OC(=O)N(C)C)C[C@@H]2N(C)CC3)cc1OC [Compound 201, (3aS,6R,7aS)-3a-(3,4-dimethoxyphenyl)-1-methyloctahydro-1H-indol-6-yl dimethylcarbamate]	–	–	–	–	–	–	–	–	–	–	–	–	Prodrug (%) [1, 3]: 100.0%; Prodrug (%) [1, 4]: >99.0%; Prodrug (%) [1, 5]: >99.0%; Prodrug (%) [1, 6]: >99.0%; Prodrug (%) [1, 7]: >99.0%; Prodrug (%) [1, 8]: 97.6%; Prodrug (%) [2, 9]: 100.0%; Prodrug (%) [2, 10]: 96.3%; Prodrug (%) [2, 11]: 97.0%; Prodrug (%) [2, 12]: 94.8%; Prodrug (%) [2, 13]: 97.7%; Prodrug (%) [2, 14]: >99.0%
COc1ccc([C@@]23CC[C@@H](OC(=O)C(C)C)C[C@@H]2N(C)CC3)cc1OC [Compound 203, (3aS,6R,7aS)-3a-(3,4-dimethoxyphenyl)-1-methyloctahydro-1H-indol-6-yl isobutyrate]	100.0	0.1	0.1	0.0	0.0	0.0	100.0	0.1	0.1	0.1	0.1	0.1	–
COc1ccc([C@@]23CC[C@H](OC(=O)N(C)C)C[C@@H]2N(C)CC3)cc1OC [Compound 101, (3aS,6S,7aS)-3a-(3,4-dimethoxyphenyl)-1-methyloctahydro-1H-indol-6-yl dimethylcarbamate]	100.0	88.7	95.0	98.2	99.4	92.2	100.00	>99.0	>99.0	>99.0	>99.0	>99.0	–
CCCCC(=O)O[C@H]1CC[C@@]2(c3ccc(OC)c(OC)c3)CCN(C)[C@H]2C1 [Compound 105, (3aS,6S,7aS)-3a-(3,4-dimethoxyphenyl)-1-methyloctahydro-1H-indol-6-yl pentanoate]	100.0	10.8	0.5	0.1	0.0	0.0	100.00	96.40	89.85	81.61	72.68	50.16	–
COc1ccc([C@@]23CC[C@@H](OCOC(=O)C(C)C)C[C@@H]2N(C)CC3)cc1OC [Compound 208, (((3aS,6R,7aS)-3a-(3,4-dimethoxyphenyl)-1-methyloctahydro-1H-indol-6-yl)oxy)methyl isobutyrate]	100.0	0.0	0.0	0.0	0.0	0.0	100.0	0.1	0.2	0.2	0.0	0.0	–
CCCCC(=O)OC1CC[C@@]2(c3ccc(OC)c(OC)c3)CCN(C)[C@H]2C1 (stereo in doubt) [Compound 205, (3aS,6S,7aS)-3a-(3,4-dimethoxyphenyl)-1-methyloctahydro-1H-indol-6-yl pentanoate]	100.0	0.6	0.1	0.1	0.1	0.0	100.0	96.7	90.7	84.3	80.3	67.9	–
CCCC(=O)OCO[C@@H]1CC[C@@]2(c3ccc(OC)c(OC)c3)CCN(C)[C@H]2C1 [Compound 210, (((3aS,6R,7aS)-3a-(3,4-dimethoxyphenyl)-1-methyloctahydro-1H-indol-6-yl)oxy)methyl butyrate]	100.0	0.0	0.0	0.0	0.1	0.1	100.0	0.5	1.0	0.6	0.1	0.1	–
CCOC(=O)O[C@@H]1CC[C@@]2(c3ccc(OC)c(OC)c3)CCN(C)[C@H]2C1 [Compound 209, (3aS,6R,7aS)-3a-(3,4-dimethoxyphenyl)-1-methyloctahydro-1H-indol-6-yl ethyl carbonate]	100.0	11.5	0.0	0.0	0.0	0.0	100.0	96.0	91.8	87.6	84.1	72.5	–
COc1ccc([C@@]23CC[C@H](OC(=O)c4ccccc4)C[C@@H]2N(C)CC3)cc1OC [Compound 104, (3aS,6S,7aS)-3a-(3,4-dimethoxyphenyl)-1-methyloctahydro-1H-indol-6-yl benzoate]	–	–	–	–	–	–	–	–	–	–	–	–	Prodrug (%) [1, 3]: 100.0%; Prodrug (%) [1, 4]: 62.0%; Prodrug (%) [1, 5]: 27.5%; Prodrug (%) [1, 6]: 7.5%; Prodrug (%) [1, 7]: 1.4%; Prodrug (%) [1, 8]: 0.6%; Prodrug (%) [2, 9]: 100.00%; Prodrug (%) [2, 10]: >99.0%; Prodrug (%) [2, 11]: 97.34%; Prodrug (%) [2, 12]: 97.40%; Prodrug (%) [2, 13]: 95.15%; Prodrug (%) [2, 14]: 90.28%
COc1ccc([C@@]23CC[C@H](OC(=O)C(C)(C)C)C[C@@H]2N(C)CC3)cc1OC [Compound 102, (3aS,6S,7aS)-3a-(3,4-dimethoxyphenyl)-1-methyloctahydro-1H-indol-6-yl pivalate]	100.0	>99.0	77.8	68.1	42.3	15.4	100.00	97.52	95.20	92.88	>99.0	94.80	–
